Reference: patent US6469042B1, “Fluoro oxindole derivatives as modulators if KCNQ potassium channels” (Bristol-Myers Squibb Company, priority 2001, dated 2002)
Marks after values point to notes of the source that are not given here.

Tests used:
[1] = target: T1, cloned mouse KCNQ2 (mKCNQ2) (Mus musculus, UniProt Q9Z351); experiment: KCNQ oocyte two-electrode voltage clamp, KCNQ2-mediated outward current; type: cell-based; conditions: expressed as percent increase over KCNQ current in controls, Xenopus oocytes
T1 construct: expressed in transfected cells; host or cells: Xenopus oocytes injected with mKCNQ2 cRNA
Method: The ability of compounds described in the present invention to open KCNQ channels and increase whole-cell outward (K^+) KCNQ-mediated currents was assessed under voltage-clamp conditions by determining their ability to increase cloned mouse KCNQ2 (mKCNQ2)-mediated, heteromultimeric KCNQ2/3 (mμKCNQ2/3)-mediated, and human KCNQ5 (hKCNQ5)-mediated outward currents heterologously expressed in Xenopus oocytes. Oocytes were prepared and injected using standard techniques; each oocyte was injected with approximately 50 nl of mKCNQ2, or hKCNQ5 cRNA. In the case of mKCNQ2/3 heteromultimeric channel expression, equal amounts (25-50 nL) of ech cRNA were co-injected. […] Following injection, oocytes were maintained at 17° in ND96 medium consisting of (in mM): NaCl, 90; KCl, 1.0; CaCl2, 1:0; MgCl2, 1:0; HEPES, 5.0; pH 7.5. Horse serum (5%) and penicillin/streptomyin (5%) were added to the incubation medium. Recording commenced 2-6 days following mRNA injection. Prior to the start of an experiment oocytes were placed in a recording chamber and incubated in Modified Barth's Solution (MBS) consisting of (in mM): NaCl, 88; NaHCO3, 2.4; KCl, 1.0; HEPES, 10; MgSO4, 0.82; Ca(NO3)2, 0.33; CaCl2, 0.41; pH 7.5.
Oocytes were impaled with electrodes (1-2 MΩ) and standard 2-electrode voltage clamp techniques were employed to record whole-cell membrane currents. Recordings were accomplished using standard two-electrode voltage clamp techniques [Stuhmer, W., et al., Methods in Enzymolgy, Vol. 207: 319-339 (1992)]. Voltage-clamp protocols typically consisted of a series of voltage steps 1-5 sec duration, in +10 mV steps from a holding potential of −90 mV to a maximal potential of +40 mV; records were digitized at 5 kHz and stored on a computer using pClamp data acquisition and analysis software (Axon Instruments). Compounds were evaluated at a single concentration (10 or 20 μM); the effect of the selected compounds of Formula I on KCNQ2 current was expressed as the percent of control current and is listed in Table I.

[2] = tested on: SSS-stimulated trigeminal field response in trigeminal nucleus caudalis; experiment: In vivo electrophysiology: superior sagital sinus (SSS)-stimulated trigeminal field response (migraine model); design: species or system rat
Excerpt: Male Long-Evans rats (Harlan, 250-400 g) were used in the experiments described in this example. Prior to testing, rats were allowed access to food and water ad libitum and were maintained on a 12:12-h light/dark cycle. Rats were group housed in an Association for Assessment and Accreditation of Laboratory Animal Care (AAALAC) accredited facility and cared for in strict compliance with all applicable regulations.
Rats were anesthetized with 1.2 g/kg i.p. urethane (#U-2500, Sigma Chemical Company, St. Louis, Mo.) and given supplemental urethane as needed. In the case of intravenous (i.v.) drug administration, the jugular veins of the rats were cannulated using sylastic tubing pre-filled with vehicle.
Rats were placed in a stereotaxic device (#1730, David Kopf Instruments, Tujunga, Calif.) and an incision was made to expose the entire skull that continued caudally to the level of the C1/C2 vertebral juncture. Using a microdrill (#770, Dremel, Racine, Wis.) and #4 carbide burr (Henry Schein, Melville, N.Y.), a square section of skull was removed extending from the bregma position, rostrally, to the lambda position, caudally. […]
Stimulated field responses were recorded in the trigeminal nucleus caudalis using Teflon coated stainless-steel microelectrodes (5 megaohms impedance, Frederick Haer, Brunswick, Me.) and amplified and filtered (0.1 Hz-10 kHz) using a differential amplifier (#IsoDAM8, World Precision Instruments, Sarasota, Fla.). […]
Three baseline measures (i.e., 100% of control), each consisting of 100 evoked trigeminal field potentials, were sampled prior to drug injection. […] Following injection of test substances, data were sampled for 1 hour, averaged into 5 minute bins (90 evoked potentials) and expressed as a percent change from average baseline values for the purposes of statistical analysis. Data were analyzed using repeated measures analyses of variance comparing vehicle and drug effects. […]

T1 sequence (Q9Z351 whole entry): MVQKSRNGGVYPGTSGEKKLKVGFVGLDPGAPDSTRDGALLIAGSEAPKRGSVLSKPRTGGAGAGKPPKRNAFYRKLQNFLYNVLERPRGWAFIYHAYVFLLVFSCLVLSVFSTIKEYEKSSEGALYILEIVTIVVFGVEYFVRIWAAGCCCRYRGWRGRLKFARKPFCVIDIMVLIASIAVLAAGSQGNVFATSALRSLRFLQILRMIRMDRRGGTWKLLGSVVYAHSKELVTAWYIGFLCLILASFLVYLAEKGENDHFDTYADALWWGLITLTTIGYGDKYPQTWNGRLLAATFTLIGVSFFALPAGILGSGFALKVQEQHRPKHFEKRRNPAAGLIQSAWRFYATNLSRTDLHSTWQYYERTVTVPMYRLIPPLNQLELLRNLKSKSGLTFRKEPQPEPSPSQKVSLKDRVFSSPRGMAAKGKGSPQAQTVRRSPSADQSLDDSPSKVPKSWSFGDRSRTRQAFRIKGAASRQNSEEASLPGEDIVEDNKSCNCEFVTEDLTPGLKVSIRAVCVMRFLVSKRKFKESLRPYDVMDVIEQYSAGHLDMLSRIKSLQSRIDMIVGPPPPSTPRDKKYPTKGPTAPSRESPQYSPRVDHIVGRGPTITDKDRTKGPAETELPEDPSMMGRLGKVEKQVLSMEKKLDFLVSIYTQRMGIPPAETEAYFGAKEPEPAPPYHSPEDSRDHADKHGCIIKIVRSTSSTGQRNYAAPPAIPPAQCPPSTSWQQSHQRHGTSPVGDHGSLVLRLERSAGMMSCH

Row | Compound | melting point | KCNQ2 Current ([1]; at 20 μM) | also measured
1 | O=C1Nc2cc(C(F)(F)F)ccc2C1(F)c1cc(Cl)ccc1OCC(F)(F)F (racemic) [Example 1, (±)-3-[5-Chloro-2-[(2,2,2-trifluoroethoxy)phenyl]-1,3-dihydro-3-fluoro-6-(trifluoromethyl)-2H-indol-2-one] | – | – | KCNQ2 Current ([1]; at 10 μM): ++** (++ = >150%)
2 | O=C1Nc2cc(Cl)ccc2C1(F)c1cc(Cl)ccc1OCC(F)(F)F (single isomer, unassigned; (+)) [Example 12, (+)-6-Chloro-3-[5-chloro-2-(2,2,2-trifluoroethox)phenyl]-1,3-dihydro-3-fluoro-2H-indol-2-one] | – | ++ (++ = >150%) | –
3 | O=C1Nc2cc(-c3ccc(C(F)(F)F)cc3)ccc2C1(F)c1cc(Cl)ccc1OCC(F)(F)F (racemic) [Example 23, (±)-3-[5-Chloro-2-(2,2,2-trifluoroethoxy)phenyl]-1,3-dihydro-3-fluoro-6-[4-(trifluoromethyl)phenyl]-2H-indol-2-one] | 103 to 105 °C | – | –
4 | O=C1Nc2cc(C(F)(F)F)ccc2C1(F)c1cc(Cl)ccc1OCC(F)(F)F (racemic) [Example 2, (±)-3-[5-Chloro-2-[(2,2,2-trifluoroethoxy)phenyl]-1,3-dihydro-3-fluoro-6-(trifluoromethyl)-2H-indol-2-one] | – | – | decrease from control amplitude of SSS-stimulated trigeminal field response ([2]; 50 mg/kg i.v., anesthetized Long-Evans rats, solution in 100% polyethylene glycol 400): 86.7±1.67%; reduction of trigeminal field response compared with vehicle ([2]; doses 0.1, 1.0, 10.0, 30.0 and 50.0 mg/kg i.v., p<0.01 in all cases): Significant reductions compared with vehicle; reduction in the SSS-stimulated trigeminal field response ([2]; i.v., rats, overall ANOVA p<0.001): dose-dependent reduction; KCNQ2 Current ([1]; at 10 μM): ++** (++ = >150%)
5 | O=C1Nc2cc(Cl)ccc2C1(F)c1cc(Cl)ccc1OCC(F)(F)F (racemic) [Example 11, (±)-6-Chloro-3-[5-chloro-2-(2,2,2-trifluoroethoxy)phenyl]-1,3-dihydro-3-fluoro-2H-indol-2-one] | 167 to 169 °C | ++ (++ = >150%) | –

Further lines, with some results ahead:

Row | melting point | KCNQ2 Current ([1]; at 20 μM) | Compound | also measured
6 | 105 to 107 °C | – | CCSc1ccc(Cl)cc1C1(F)C(=O)Nc2cc(C(F)(F)F)ccc21 (stereo not shown) [Example 17, 3-[5-Chloro-2-(ethylthio)phenyl]-1,3-dihydro-3-fluoro-6-(trifluoromethyl)-2H-indol-2-one] | –
7 | 150 to 151 °C | – | O=C1Nc2cc(CF)ccc2C1(F)c1cc(Cl)ccc1OCC(F)(F)F (racemic) [Example 7, (±)-3-[5-Chloro-2-(2,2,2-trifluoroethoxy)phenyl]-1,3-dihydro-3-fluoro-6-(fluoromethyl)-2H-indol-2-one] | –
8 | – | + (+ = 120-150%) | O=C1Nc2cc(C(F)(F)F)ccc2C1(F)c1cc(Cl)ccc1OCCF (racemic) [Example 14, (±)-3-[5-Chloro-2-(2-fluoroethoxy)phenyl]-1,3-dihydro-3-fluoro-6-(trifluoromethyl)-2H-indol-2-one] | –
9 | 200 to 203 °C | + (+ = 120-150%) | O=C1Nc2cc(F)c(F)cc2C1(F)c1cc(Cl)ccc1OCC(F)(F)F (racemic) [Example 10, (±)-3-[5-Chloro-2-(2,2,2-trifluoroethoxy)phenyl]-1,3-dihydro-3,5,6-trifluoro-2H-indol-2-one] | –
10 | 200 to 202 °C | – | O=C1Nc2cc(F)ccc2C1(F)c1cc(Cl)ccc1OCC(F)(F)F (racemic) [Example 6, (±)-3-[5-Chloro-2-(2,2,2-trifluoroethoxy)phenyl]-1,3-dihydro-3,6-difluoro-2H-indol-2-one] | –
11 | – | + (+ = 120-150%) | (±)-3-[5-Chloro-2-(2,2,2-trifluoroethoxy)phenyl]-5,6-dichloro-1,3-dihydro-3-fluoro-2H-indol-2-one [Example 9] | –
